Columns and labels:
[1] = target: T1, affinity-purified CDK9-F-CycT (Homo sapiens, UniProt P50750); assay: In vitro kinase reaction, GST-CTD substrate, pSer2 Western blotting; type: biochemical; settings: read-out: estimated IC50 of Ser2 phosphorylation
T1 construct: made in house; host or cells: probably the HeLa-based F1C2 cells
Method: (§1) Figure 1. i-CDK9 is a potent and selective CDK9 inhibitor that elicits cellular responses indicative of P-TEFb inhibition. (A and B) Structures and selectivity profiles of i-CDK9 (A) and falvopiridol (B). […] (C) In vitro kinase reactions containing affinity-purified CDK9-F-CycT or CDK12-F-CycK and GST-CTD as a substrate were conducted in the presence of the indicated concentrations of i-CDK9. pSer2 and the Flag-tagged kinase in each reaction were detected by Western blotting with anti-pSer2 and anti-Flag antibodies, respectively. (D) HeLa cells were treated for 8 hr with DMSO or the indicated concentrations of i-CDK9. Total cell lysates were examined by immunoblotting for the proteins labeled on the left. DOI: http://dx.doi.org/10.7554/eLife.06535.003 Figure 1—source data 1. Selectivity profile of i-CDK9. DOI: http://dx.doi.org/10.7554/eLife.06535.004 Figure 1—figure supplement 1. Recombinant CDK12-CycK is less sensitive to inhibition by i-CDK9.
(§2) Among all members of the CDK super family, CDK12 deserves special attention because of its reported phosphorylation of the Pol II CTD on Ser2, an ability that is shared with CDK9 ([Bartkowiak et al., 2010]). […] Phosphorylation of Ser2 (pSer2) was detected by Western blotting with a specific antibody.

[2] = target: T2, affinity-purified CDK12-F-CycK (Homo sapiens, UniProt Q9NYV4); assay: as above; type: biochemical; settings: even at 80 nM
T2 construct: made in house
Method: as §1, §2

FGFR1 = target: T3, FGFR1 (Homo sapiens, UniProt P11362); assay: biochemical binding or enzymatic assay; settings: Novartis
T3 construct: purchased DiscoveRx KINOMEscan
Method: (§3) Finally, the selectivity profile of i-CDK9 toward other non-CDK kinases was also assessed using the KINOMEscan platform. […] Except for CLK4, for which no suitable assay was available, the rest of the kinases plus a selected group of others were re-examined for the concentration-dependent effect of i-CDK9 in either functional kinase assays or binding assays. […] Indeed, it has recently been reported that DYRK1A acts as a Pol II CTD Kinase at its target gene promoters ([Di Vona et al., 2015]).

YES = target: T4, YES (Homo sapiens, UniProt P07947); assay: biochemical binding or enzymatic assay; settings: Novartis
T4 construct: purchased DiscoveRx KINOMEscan
Method: as §3

RET = target: T5, RET (Homo sapiens, UniProt P07949); assay: biochemical binding or enzymatic assay; settings: Novartis
T5 construct: purchased DiscoveRx KINOMEscan
Method: as §3

[3] = target: T6, TYK2(JH1domain-catalytic) (Homo sapiens, UniProt P29597); assay: biochemical binding or enzymatic assay; settings: Novartis
T6 construct: TYK2(JH1domain-catalytic)
Method: as §3

EGFR = target: T7, EGFR (Homo sapiens, UniProt P00533); assay: biochemical binding or enzymatic assay; settings: Novartis
T7 construct: purchased DiscoveRx KINOMEscan
Method: as §3

CAMK2D = target: T8, CAMK2D (Homo sapiens, UniProt Q13557); assay: biochemical binding or enzymatic assay; settings: Novartis
T8 construct: purchased DiscoveRx KINOMEscan
Method: as §3

KIT = target: T9, KIT (Homo sapiens, UniProt P10721); assay: biochemical binding or enzymatic assay; settings: Novartis
T9 construct: purchased DiscoveRx KINOMEscan
Method: as §3

CSNK1G3 = target: T10, CSNK1G3 (Homo sapiens, UniProt Q9Y6M4); assay: biochemical binding or enzymatic assay; settings: Novartis
T10 construct: purchased DiscoveRx KINOMEscan
Method: as §3

PIM2 = target: T11, PIM2 (Homo sapiens, UniProt Q9P1W9); assay: biochemical binding or enzymatic assay; settings: Novartis
T11 construct: purchased DiscoveRx KINOMEscan
Method: as §3

PKNB(M.tuberculosis) = target: T12, PKNB(M.tuberculosis) (Mycobacterium tuberculosis, UniProt P9WI81); assay: KINOMEscan binding assay; settings: 1 µM i-CDK9; read-out: % Retention on Solid Support
T12 construct: purchased DiscoveRx KINOMEscan

[4] = target: JAK1(JH1domain-catalytic) (Homo sapiens, UniProt P23458); assay: KINOMEscan binding assay; design: JAK1(JH1domain-catalytic); purchased DiscoveRx KINOMEscan
Method: As there are no commercial or in-house kinase assays available for CDK3, CDK5, CDK11 and CDK13, the inhibitory abilities of i-CDK9 toward these CDKs were thus evaluated in the DiscoveRx KINOMEscan assay, which is based on a proprietary active site-directed competition-binding platform ([Fabian et al., 2005]).
The inhibitory activity of i-CDK9 for CDK1-CycB (Upstate/Millipore), CDK2-CycA (Invitrogen), CDK4-CycD1 (Novartis), CDK7-CycH-MAT1 (Invitrogen), and CDK9-CycT1 (Invitrogen) was assessed in the AlphaScreen (PerkinElmer, Inc)-based kinase assay developed at Novartis. Briefly, each CDK–cyclin pair was pre-incubated with i-CDK9 for 15 min, followed by addition of kinase substrates (ELK for CDK1 and CDK2, RB for CDK4, and CDK7tide for CDK7 and CDK9). The mixture was incubated at room temperature for additional 4–5 hr. The reaction was stopped and read on Envision (PerkinElmer, Inc). Selectivity against a large panel of over 400 kinases was evaluated using the KINOMEscan platform (DiscoveRx, CA) employing a proprietary active site-directed competition binding assay ([Fabian et al., 2005]). The assay was conducted at two different concentrations of i-CDK9 (1 and 10 µM) by DiscoveRx.

Chain of JAK1(JH1domain-catalytic) (P23458 854-1154 limits assumed): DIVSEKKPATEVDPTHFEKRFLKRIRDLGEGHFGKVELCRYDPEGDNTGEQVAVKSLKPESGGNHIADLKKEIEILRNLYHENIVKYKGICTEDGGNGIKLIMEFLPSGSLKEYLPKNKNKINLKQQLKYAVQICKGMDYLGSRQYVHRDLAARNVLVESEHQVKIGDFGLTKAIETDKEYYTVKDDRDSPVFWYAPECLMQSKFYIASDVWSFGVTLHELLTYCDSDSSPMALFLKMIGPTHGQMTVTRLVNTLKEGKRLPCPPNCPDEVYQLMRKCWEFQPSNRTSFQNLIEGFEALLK
T1 sequence (P50750 whole entry): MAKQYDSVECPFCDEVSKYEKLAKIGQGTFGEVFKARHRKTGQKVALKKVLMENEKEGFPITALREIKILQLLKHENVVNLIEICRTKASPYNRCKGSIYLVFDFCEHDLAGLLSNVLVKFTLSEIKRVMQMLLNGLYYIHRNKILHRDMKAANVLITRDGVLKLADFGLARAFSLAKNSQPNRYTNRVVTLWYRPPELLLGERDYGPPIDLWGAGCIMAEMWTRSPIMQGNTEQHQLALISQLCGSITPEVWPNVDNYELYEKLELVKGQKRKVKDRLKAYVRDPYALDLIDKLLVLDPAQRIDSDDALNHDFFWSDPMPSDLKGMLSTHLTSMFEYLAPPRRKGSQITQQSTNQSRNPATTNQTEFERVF
T1 sequence (O60563 whole entry partner): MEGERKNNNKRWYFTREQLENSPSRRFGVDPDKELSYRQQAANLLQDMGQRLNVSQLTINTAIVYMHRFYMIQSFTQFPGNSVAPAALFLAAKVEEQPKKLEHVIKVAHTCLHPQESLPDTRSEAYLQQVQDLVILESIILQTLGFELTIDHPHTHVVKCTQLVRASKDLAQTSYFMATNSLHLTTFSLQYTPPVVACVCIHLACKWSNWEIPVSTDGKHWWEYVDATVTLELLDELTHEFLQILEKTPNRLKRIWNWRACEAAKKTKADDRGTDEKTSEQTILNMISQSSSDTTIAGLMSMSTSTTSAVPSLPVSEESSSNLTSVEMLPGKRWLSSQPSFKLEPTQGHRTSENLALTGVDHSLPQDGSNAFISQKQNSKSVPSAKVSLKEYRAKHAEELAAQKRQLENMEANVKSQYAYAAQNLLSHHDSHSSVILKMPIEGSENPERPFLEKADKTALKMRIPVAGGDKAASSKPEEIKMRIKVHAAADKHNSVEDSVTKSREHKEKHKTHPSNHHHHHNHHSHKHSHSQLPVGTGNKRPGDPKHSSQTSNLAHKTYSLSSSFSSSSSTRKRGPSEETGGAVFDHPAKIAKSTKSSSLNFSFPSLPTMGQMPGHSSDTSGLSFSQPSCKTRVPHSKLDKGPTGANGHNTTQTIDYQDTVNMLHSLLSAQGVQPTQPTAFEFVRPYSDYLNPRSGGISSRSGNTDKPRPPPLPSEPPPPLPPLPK
T10 sequence (Q9Y6M4 whole entry): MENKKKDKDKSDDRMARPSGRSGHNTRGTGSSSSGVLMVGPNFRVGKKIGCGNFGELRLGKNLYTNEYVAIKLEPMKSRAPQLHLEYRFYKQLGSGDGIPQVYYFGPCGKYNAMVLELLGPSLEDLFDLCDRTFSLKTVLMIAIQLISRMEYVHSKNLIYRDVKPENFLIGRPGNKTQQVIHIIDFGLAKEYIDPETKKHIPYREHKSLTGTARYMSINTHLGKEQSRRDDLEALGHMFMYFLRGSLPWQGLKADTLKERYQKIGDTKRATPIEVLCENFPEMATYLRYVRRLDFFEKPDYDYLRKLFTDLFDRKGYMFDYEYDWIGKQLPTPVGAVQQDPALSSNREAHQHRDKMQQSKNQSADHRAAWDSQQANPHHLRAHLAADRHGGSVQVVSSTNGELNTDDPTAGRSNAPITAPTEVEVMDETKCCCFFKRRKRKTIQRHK
T9 sequence (P10721 26-976): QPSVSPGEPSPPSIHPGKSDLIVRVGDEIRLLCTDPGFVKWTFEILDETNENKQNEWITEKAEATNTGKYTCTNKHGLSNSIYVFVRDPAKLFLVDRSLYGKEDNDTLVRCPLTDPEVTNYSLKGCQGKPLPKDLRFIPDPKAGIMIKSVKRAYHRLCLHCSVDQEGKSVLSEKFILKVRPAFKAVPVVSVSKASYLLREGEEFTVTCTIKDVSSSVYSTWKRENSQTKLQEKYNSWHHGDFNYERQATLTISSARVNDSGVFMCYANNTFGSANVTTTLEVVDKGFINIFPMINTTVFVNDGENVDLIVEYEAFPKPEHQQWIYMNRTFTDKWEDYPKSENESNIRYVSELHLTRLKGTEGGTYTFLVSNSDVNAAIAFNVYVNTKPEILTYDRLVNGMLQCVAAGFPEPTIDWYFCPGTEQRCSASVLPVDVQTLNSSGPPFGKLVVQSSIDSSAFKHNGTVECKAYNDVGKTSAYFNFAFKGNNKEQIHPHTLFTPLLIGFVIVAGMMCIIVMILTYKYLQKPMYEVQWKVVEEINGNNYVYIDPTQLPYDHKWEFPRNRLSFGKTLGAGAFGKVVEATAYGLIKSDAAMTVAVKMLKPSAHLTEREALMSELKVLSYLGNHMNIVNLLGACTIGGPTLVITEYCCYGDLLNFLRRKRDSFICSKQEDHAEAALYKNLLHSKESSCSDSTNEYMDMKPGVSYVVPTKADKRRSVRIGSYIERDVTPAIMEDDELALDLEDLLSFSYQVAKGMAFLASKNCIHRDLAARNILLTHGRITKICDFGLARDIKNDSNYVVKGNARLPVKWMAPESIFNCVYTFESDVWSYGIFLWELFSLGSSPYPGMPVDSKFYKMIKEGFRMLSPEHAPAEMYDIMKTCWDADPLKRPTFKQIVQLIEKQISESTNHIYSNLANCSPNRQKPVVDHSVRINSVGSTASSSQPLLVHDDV
T5 sequence (P07949 29-1114): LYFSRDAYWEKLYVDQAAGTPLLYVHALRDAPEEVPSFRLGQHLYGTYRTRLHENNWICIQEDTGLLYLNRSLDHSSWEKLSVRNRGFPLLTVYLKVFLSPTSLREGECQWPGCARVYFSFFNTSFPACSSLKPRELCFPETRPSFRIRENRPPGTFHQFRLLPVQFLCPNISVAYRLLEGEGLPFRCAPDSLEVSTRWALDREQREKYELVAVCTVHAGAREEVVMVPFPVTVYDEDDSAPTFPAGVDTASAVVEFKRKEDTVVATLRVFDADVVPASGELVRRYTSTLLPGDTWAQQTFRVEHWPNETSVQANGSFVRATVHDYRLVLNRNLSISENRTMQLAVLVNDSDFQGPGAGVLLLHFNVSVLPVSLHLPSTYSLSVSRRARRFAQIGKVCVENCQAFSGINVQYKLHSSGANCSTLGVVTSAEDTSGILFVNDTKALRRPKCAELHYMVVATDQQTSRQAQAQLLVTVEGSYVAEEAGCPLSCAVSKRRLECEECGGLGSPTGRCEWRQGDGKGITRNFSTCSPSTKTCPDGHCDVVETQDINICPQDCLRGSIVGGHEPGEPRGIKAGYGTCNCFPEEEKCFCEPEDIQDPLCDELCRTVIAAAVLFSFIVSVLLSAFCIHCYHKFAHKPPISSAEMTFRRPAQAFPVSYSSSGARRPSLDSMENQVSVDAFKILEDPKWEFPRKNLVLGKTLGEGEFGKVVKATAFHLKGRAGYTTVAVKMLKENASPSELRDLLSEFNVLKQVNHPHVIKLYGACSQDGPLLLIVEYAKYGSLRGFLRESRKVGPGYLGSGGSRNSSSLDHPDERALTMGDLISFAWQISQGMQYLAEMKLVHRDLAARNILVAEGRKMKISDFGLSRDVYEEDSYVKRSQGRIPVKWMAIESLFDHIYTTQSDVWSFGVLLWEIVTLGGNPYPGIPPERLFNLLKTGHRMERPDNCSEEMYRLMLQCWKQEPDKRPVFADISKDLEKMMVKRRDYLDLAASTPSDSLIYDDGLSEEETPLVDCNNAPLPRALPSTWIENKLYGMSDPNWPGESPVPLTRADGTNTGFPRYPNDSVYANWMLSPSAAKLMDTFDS
T7 sequence (P00533 25-1210): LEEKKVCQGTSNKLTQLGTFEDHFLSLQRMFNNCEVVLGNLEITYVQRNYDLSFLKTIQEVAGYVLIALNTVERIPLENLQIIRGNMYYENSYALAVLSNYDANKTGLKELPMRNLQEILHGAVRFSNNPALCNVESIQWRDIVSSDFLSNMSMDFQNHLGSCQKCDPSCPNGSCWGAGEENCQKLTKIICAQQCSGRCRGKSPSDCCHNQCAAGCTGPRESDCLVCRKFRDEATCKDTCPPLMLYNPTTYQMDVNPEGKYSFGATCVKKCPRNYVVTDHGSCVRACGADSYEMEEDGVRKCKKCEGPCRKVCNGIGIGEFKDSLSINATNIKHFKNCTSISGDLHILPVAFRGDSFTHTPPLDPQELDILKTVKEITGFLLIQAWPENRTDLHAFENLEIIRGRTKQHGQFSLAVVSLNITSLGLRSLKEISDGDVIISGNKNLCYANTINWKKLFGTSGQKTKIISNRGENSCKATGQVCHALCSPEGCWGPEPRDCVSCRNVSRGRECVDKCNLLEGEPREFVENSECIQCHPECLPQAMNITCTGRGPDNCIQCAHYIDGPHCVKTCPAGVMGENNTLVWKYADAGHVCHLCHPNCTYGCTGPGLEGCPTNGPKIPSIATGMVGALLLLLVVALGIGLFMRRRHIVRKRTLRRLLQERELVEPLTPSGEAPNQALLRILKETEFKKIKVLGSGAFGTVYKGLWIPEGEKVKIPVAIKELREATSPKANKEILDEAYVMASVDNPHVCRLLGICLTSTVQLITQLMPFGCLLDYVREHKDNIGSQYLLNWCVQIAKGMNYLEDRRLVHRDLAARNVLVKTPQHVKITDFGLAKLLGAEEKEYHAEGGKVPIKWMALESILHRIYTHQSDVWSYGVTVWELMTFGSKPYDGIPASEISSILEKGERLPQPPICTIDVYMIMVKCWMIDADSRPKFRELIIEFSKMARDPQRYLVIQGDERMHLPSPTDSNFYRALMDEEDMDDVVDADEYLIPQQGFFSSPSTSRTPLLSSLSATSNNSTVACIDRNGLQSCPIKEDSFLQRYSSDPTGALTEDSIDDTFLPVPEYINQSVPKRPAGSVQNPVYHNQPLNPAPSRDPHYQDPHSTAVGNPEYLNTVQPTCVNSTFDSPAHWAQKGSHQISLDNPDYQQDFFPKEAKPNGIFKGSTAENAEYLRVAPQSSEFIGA

**Q.** What does the source list for `N[C@H]1CC[C@H](Nc2cc(-c3cccc(NCc4cccc(F)c4)n3)c(Cl)cn2)CC1` [i-CDK9, N2′-(trans-4-aminocyclohexyl)-5′-chloro-N6-(3-fluorobenzyl)-2,4′-bipyridine-2′,6-diamine]?
**A.** IC50 [1]: ~0.002 µM; inhibition of Ser2 phosphorylation [2]: no obvious inhibition; IC50 (FGFR1): > 10 µM; IC50 (YES): > 10 µM; IC50 (RET): > 10 µM; IC50 [3]: > 10 µM; IC50 (EGFR): > 10 µM; IC50 (CAMK2D): 4 µM; IC50 (KIT): > 10 µM; IC50 (CSNK1G3): > 10 µM; IC50 (PIM2): > 10 µM; remaining binding at 1 µM (PKNB(M.tuberculosis)): 100%; % Retention on Solid Support ([4]; 1 µM i-CDK9): 100%; % Retention on Solid Support ([4]; 10 µM i-CDK9): 100%

Reference: publication PMC4490784, “Compensatory induction of MYC expression by sustained CDK9 inhibition via a BRD4-dependent mechanism” (eLife, 2015)
